# Laboratory results as given in US20150157588A1, “Pharmaceutical Composition Comprising Amino-Phenyl-Acetic Acid Octadec-(Z)-9-enyl Ester and Use Thereof for Treating Tumors” (Yeda Research and Development Co., Ltd., priority 2012, published 2015).
# What was measured:
# [1] = system: unstimulated CD3 positive T cells; assay: Microarray gene expression, unstimulated T cells; assay type: cell-based, human; conditions: for Fold change C16orf7: 205781_at; for Fold change TNFRSF17: 206641_at; for Fold change LILRB2 /// LILRB3: 210784_x_at; for Fold change CLEC11A: 211709_s_at; for Fold change WDR33: 218851_s_at
# Description: CD3 positive T cells were extracted from a healthy donor according to a standard protocol, and seeded in T cell medium including RPMI, 10% fetal calf serum, sodium pyruvate, L-Glutamine, and Penicillin/Streptomycin. Following an overnight incubation with medium, the cells were treated by incubating for 2 hours at 37° C. with amino-phenyl-acetic acid octadec-(Z)-9-enyl ester at a concentration of 10 micrograms/ml in a final volume of 10 ml in T-cell medium with or without 0.05% ethanol. After incubation, half the cells from each treatment were centrifuged and 2 ml of Tri-reagent (Sigma) were added to the pellet. The other half of the cells from each treatment were transferred to anti-CD3 antibody coated 24 well plates for an overnight incubation at 37° C. Coating plates with an anti-CD3 antibody was carried out by incubating with 2 micrograms/ml of OKT3 anti-CD3 antibody overnight at 4° C., washing three times with PBS and blocking with filtered 1% Bovine Serum Albumin for 1 hour. After activation with anti-CD3 antibody, cells were centrifuged and 2 ml of Tri-reagent were added to the pellet.
# RNA was extracted from unstimulated cells and from cells activated with anti-CD3 according to standard protocols and used for hybridization with a Human Genome U133A 2.0 (Affymetrix, Catalogue number 900468), according to the manufacturer's instructions. The results of the hybridization were read by a GeneChip scanner 3000 (Affymetrix) and analyzed by QuantArray (GSI lumonics).
# The effects of amino-phenyl-acetic acid octadec-(Z)-9-enyl ester in ethanol solution or in an aqueous vehicle (hereinafter termed “in PBS”) on gene expression in unstimulated T cells and T cells activated by anti-CD3 antibody were compared by microarray analysis.
# [2] = system: Clone D122 of the 3LL mouse Lewis Lung carcinoma; assay: Lung carcinoma mouse model: 3LL cells in footpad, local growth and mortality from lung metastasis after excision; assay type: in vivo; conditions: for day of 50% mortality from lung metastasis: 100 μg in PBS subcutaneously twice weekly
# Description: Clone D122 of the 3LL mouse Lewis Lung carcinoma, a standard model of growth and metastasis, was used. Syngeneic 8-weeks old C57BL/6 male mice were injected into one hind footpad with 50,000 3LL tumor cells. Local growth of the tumor was followed. Tumors that reached the size of 8 mm×8 mm were excised; tumor excision at this stage was known to trigger the growth of lung metastases that eventually killed the mice. This model allows for investigation of the effect of treatment on two phases of the tumor progression: 1) the effect on local growth, as determined by the time it takes for the tumors to reach the size for excision; and 2) the effect on tumor metastasis as measured by the time it takes for death to occur after excision.
# Three groups of 12-13 mice each were injected with 3LL tumor cells as described in the Materials and Methods section, and were treated subcutaneously with 100 μg of amino-phenyl-acetic acid octadec-(Z)-9-enyl ester injected twice weekly (every Monday and Thursday) either from day 6 after tumor injection (to investigate the effect on local growth and metastasis) or from the time of excision of the tumor (to investigate the effect on metastasis only), or were injected with PBS as a control. […] Tumors were excised on the same day. Mice treated with PBS or mice treated with amino-phenyl-acetic acid octadec-(Z)-9-enyl ester in PBS only following tumor excision reached excision size beginning on day 25 (white bars). In contrast, mice treated with amino-phenyl-acetic acid octadec-(Z)-9-enyl ester from day 6 following injection (black bars) reached excision size on day 32, and all mice were excised by day 41.
# The PBS-treated mice reached 50% mortality on day 50 (triangles); the mice receiving amino-phenyl-acetic acid octadec-(Z)-9-enyl ester in PBS after tumor excision reached 50% mortality only on day 68 (squares); and the mice treated with amino-phenyl-acetic acid octadec-(Z)-9-enyl ester in PBS from day 6 following tumor implantation reached 50% mortality on day 90 (circles).
# [3] = in ethanol solution vs untreated
# [4] = in ethanol solution vs untreated, data not shown
# [5] = 100 μg in PBS subcutaneously twice weekly from day 6 after tumor injection
smiles,measurement,setting,value
CCCCCCCC/C=C\CCCCCCCCOC(=O)C(N)c1ccccc1 (centres unmarked) [amino-phenyl-acetic acid octadec-(Z)-9-enyl ester],Fold change SYMPK,"[1]; 32402_s_at, in ethanol solution vs in PBS",2.03
same,Fold change HEY1,"[1]; 44783_s_at, in ethanol solution vs untreated",2.11
same,Fold change TPM2,"[1]; 204083_s_at, in ethanol solution vs untreated",2.39
same,Fold change CDC25A,"[1]; 204695_at, in ethanol solution vs in PBS",1.94
same,Fold change EPHB6,"[1]; 204718_at, in ethanol solution vs in PBS",2.019
same,Fold change RRAD,"[1]; 204802_at, in ethanol solution vs in PBS",2.27
same,Fold change C16orf7,[1]; in ethanol solution vs in PBS,2.54
same,Fold change C16orf7,[1]; [3],2.15
same,Fold change RASA3,"[1]; 206221_at, in PBS vs untreated",−2.23
same,Fold change FLJ23556,"[1]; 206548_at, in ethanol solution vs in PBS",1.94
same,Fold change TNFRSF17,[1]; in ethanol solution vs in PBS,2.08
same,Fold change TNFRSF17,[1]; [3],2.06
same,Fold change SPAG9,"[1]; 206748_s_at, in PBS vs untreated",−1.81
same,Fold change CRTC1,"[1]; 207159_x_at, in ethanol solution vs in PBS",1.96
same,Fold change TSPAN4,"[1]; 209263_x_at, in ethanol solution vs in PBS",2.24
same,Fold change SF3A2,"[1]; 209381_x_at, in ethanol solution vs untreated",1.95
same,Fold change TBC1D22A,"[1]; 210144_at, in ethanol solution vs untreated",2.03
same,Fold change LILRB2 /// LILRB3,[1]; in PBS vs untreated,−1.84
same,Fold change LILRB2 /// LILRB3,[1]; in ethanol solution vs in PBS,2.00
same,Fold change CLEC11A,[1]; in ethanol solution vs in PBS,2.10
same,Fold change CLEC11A,[1]; [3],2.19
same,Fold change BOP1 /// LOC727967,"[1]; 212563_at, in ethanol solution vs in PBS",1.94
same,Fold change ID2 /// ID2B,"[1]; 213931_at, in ethanol solution vs in PBS",2.04
same,Fold change MCL1,"[1]; 214057_at, in ethanol solution vs untreated",2.12
same,Fold change S100A8,"[1]; 214370_at, in ethanol solution vs untreated",1.9
same,Fold change MTMR1,"[1]; 214975_s_at, in PBS vs untreated",−2.41
same,Fold change probeset 215450_at,"[1]; 215450_at, in ethanol solution vs untreated",1.98
same,Fold change ARPC4,"[1]; 217817_at, in ethanol solution vs untreated",2.03
same,Fold change CENPT,"[1]; 218148_at, in ethanol solution vs untreated",1.94
same,Fold change CLN6,"[1]; 218161_s_at, in ethanol solution vs in PBS",1.94
same,Fold change IGF2BP2,"[1]; 218847_at, in ethanol solution vs untreated",2.02
same,Fold change WDR33,[1]; in ethanol solution vs in PBS,2.79
same,Fold change WDR33,[1]; [3],2.32
same,Fold change IGHD,"[1]; 222285_at, in ethanol solution vs untreated",1.98
same,Fold change probeset 222376_at,"[1]; 222376_at, in ethanol solution vs untreated",2.11
same,up-regulated genes,[1]; in PBS vs untreated,no significantly up-regulated genes
same,number of down-regulated genes,[1]; in ethanol solution compared with in PBS,497 genes
same,fold down-regulation of the down-regulated genes,[1]; [4],2-18 fold
same,number of down-regulated genes,[1]; [4],573 genes
same,day after tumor injection on which mice reached excision size (8 mm×8 mm),[2]; [5],32 days
same,day by which all mice were excised,[2]; [5],≤ 41 days
same,day of 50% mortality from lung metastasis,[2]; from day 6 following tumor implantation,90 days
same,day of 50% mortality from lung metastasis,[2]; from tumor excision,68 days
same,effect on local tumor growth,"[2]; twice weekly at the dose of 100 μg, in PBS, subcutaneously",inhibited local tumor growth
